Patent US20230062248A1, “METHODS FOR PREDICTING IXABEPILONE RESPONSIVENESS IN CANCER PATIENTS” (Allarity Therapeutics Europe ApS, priority 2020, published 2023)

Test system: breast cancer patients
Assay: Pathological complete remission (pCR) in breast cancer patients treated neoadjuvantly with ixabepilone, split by DRP prediction score (GSE41998)
Format: in vivo, human
Settings: pre-treatment biopsy
Procedure: An mRNA-based predictor of responsiveness to ixabepilone was developed according to the methods of the invention and applied to gene expression data prepared using clinical samples from breast cancer patients, which was downloaded from Gene Expression Omnibus under accession number GSE41998 (FIG. 1). The samples were diagnostic biopsies analyzed with Affymetrix GeneChips. All the genes listed in Table 2 were measured from clinical samples on the Affymetrix GeneChip and their mean expression subtracted from the mean of all the genes in Table 1. The difference (e.g., a difference score) was then compared to a difference score produced using measured levels of the sensitivity and resistance biomarkers of Tables 1 and 2 from a reference population consisting of 279 breast cancer patients participating in a clinical trial having two treatment arms ((1) ixabepilone and (2) paclitaxel treatment), producing a percentile score on a scale from 0 to 100. As part of the clinical trial, biopsy samples from breast cancer patients later treated neoadjuvantly with ixabepilone were collected prior to treatment. Patients' responses to ixabepilone were subsequently compared to predicted ixabepilone sensitivity using the methods disclosed herein. Patients with pathological complete remission (pCR) were predicted using the disclosed methods to be more sensitive to ixabepilone than patients with no pCR (No_pCR; FIG. 1).

## C/C(=C\c1csc(C)n1)[C@@H]1C[C@@H]2O[C@]2(C)CCC[C@H](C)[C@H](O)[C@@H](C)C(=O)C(C)(C)[C@@H](O)CC(=O)N1 [ixabepilone, (1S,3S,7S,10R,11S,12S,16R)-7,11 dihydroxy-8,8,10,12,16-pentamethyl-3-[(1E)-1-methyl-2-(2-methyl-4-thiazolyl)ethenyl] 17-oxa-4-azabicyclo[14.1.0] heptadecane-5,9-dione]
DRP negative (<=50)
  Non responders (no pCR), number of patients: 52
  Responders (pCR), number of patients: 8
DRP positive (>50)
  Non responders (no pCR), number of patients: 45
  Responders (pCR), number of patients: 27
